Drawing on patent US9670231B2, “Fused tricyclic amide compounds as multiple kinase inhibitors” (BEIGENE, LTD., priority 2013, dated 2017), this text covers IC50 for 20 compounds.

What all share (assay type): biochemical
The target of one test is wild type B-Raf (Homo sapiens (Human), UniProt P15056). The test is described as follows: WT BRaf IC50 assay, TR-FRET. As to conditions: Km ATP ([…] ATP); read-out: IC50 Braf-WT Km ATP. The protocol:
WT BRaf IC50 Assay Protocol
Compounds disclosed herein were tested against wild type B-Raf (PV3848, from Invitrogen) in a time-resolved fluorescence energy transfer assay. […] The enzyme was incubated with the compounds disclosed herein at room temperature for 120 minutes and the reactions were initiated by the addition of ATP and GST-MEK1. After incubating at room temperature for 60 minutes, an equal volume of stop buffer containing 25 mM Tris pH7.4, 400 mM KF, 50 mM EDTA, 0.1% BSA, 0.01% Triton X-100, 1 test of Eu3+Cryptate-conjugated rabbit polyclonal antibody anti-Phospho MEK1/2 (Ser217/221) and 1 test of d2-conjugated mouse monoclonal antibody anti-glutathione S-transferase was added to stop the reactions. Plates were sealed and incubated at room temperature for 1.5 hours, and then the TR-FRET signals were read on BMG PHERAstar FS instrument. The IC50 for each compound was calculated by non linear regression by Graphpad Prism software.

A further test concerns the target EGFR L858R kinase domain (Homo sapiens (Human), UniProt P00533, L858R). The test is described as follows: EGFR enzymatic assay, TR-FRET, EGFR L858R. Here is the method: (§1) Compounds disclosed herein were tested against WT EGFR kinase domain (aa.669-1210, Carna Biosciences, 08-115), EGFR T790M/L858R kinase domain (aa.669-1210, Carna Biosciences, 08-510) and EGFR L858R kinase domain (aa.669-1210, Carna Biosciences, 08-502) in assays based on time-resolved fluorescence-resonance energy transfer methodology. The assay was carried out in 384-well low volume black plate in a reaction mixture containing EGFR kinases, 20 LM for EGFR WT and T790M/L858R, and 125 LM for EGFR L858R), biotin-TK substrate and 0-5 LM compounds in buffer containing 50 mM HEPES pH7.5, 10 mM MgCl2, 1 mM EGTA, 0.01% Brij-35, 2.5 mM DTT, 0.1% BSA. The kinase was incubated with the compounds disclosed herein at room temperature for 120 minutes and the reaction was initiated by the addition of ATP and biotin-TK substrate. After reaction at room temperature for 30 minutes, an equal volume of stop/detection solution was added according to the manufacture's instruction (CisBio Bioassays). The stop/detection solution contained TK-Antibody-Cryptate and Streptavidin-XL665 in buffer containing 25 mM Tris pH7.4, 400 mM KF, 50 mM EDTA, 0.01% BSA, 0.01% Triton X-100. Plates were sealed and incubated at room temperature for 1 hour, and the TR-FRET signals were read on BMG PHERAstar FS instrument. The IC50 of an inhibitor was derived from fitting the % inhibition data at each compound concentration to the four-parameter logistic equation by Graphpad Prism software.

A further test has as its target WT EGFR kinase domain (Homo sapiens (Human), UniProt P00533). The test is described as follows: EGFR enzymatic assay, TR-FRET, WT EGFR. Here is the method:
as §1

In test [1] the target is EGFR T790M/L858R kinase domain (Homo sapiens (Human), UniProt P00533, L858R/T790M). The test is described as follows: EGFR enzymatic assay, TR-FRET, EGFR T790M/L858R. The protocol: as §1
A further test deals with B-Raf (V600E) (Homo sapiens (Human), UniProt P15056, V600E). The test is described as follows: Raf IC50 assay, TR-FRET, B-Raf (V600E). The settings on record: 0.1 mM ATP; read-out: IC50 BRAF-V600E. The protocol:
The enzyme was incubated with the compounds disclosed herein at room temperature for 60 minutes and the reactions were initiated by the addition of ATP and GST-MEK1. After reaction at room temperature for 60 minutes, an equal volume of stop/detection solution was added according to the manufacture's instruction (CisBio Bioassays). […] The IC50 for each compound was derived from fitting the dose-response % inhibition data to the four-parameter logistic model by Graphpad Prism software.

Chain of WT EGFR kinase domain (P00533 669-1210): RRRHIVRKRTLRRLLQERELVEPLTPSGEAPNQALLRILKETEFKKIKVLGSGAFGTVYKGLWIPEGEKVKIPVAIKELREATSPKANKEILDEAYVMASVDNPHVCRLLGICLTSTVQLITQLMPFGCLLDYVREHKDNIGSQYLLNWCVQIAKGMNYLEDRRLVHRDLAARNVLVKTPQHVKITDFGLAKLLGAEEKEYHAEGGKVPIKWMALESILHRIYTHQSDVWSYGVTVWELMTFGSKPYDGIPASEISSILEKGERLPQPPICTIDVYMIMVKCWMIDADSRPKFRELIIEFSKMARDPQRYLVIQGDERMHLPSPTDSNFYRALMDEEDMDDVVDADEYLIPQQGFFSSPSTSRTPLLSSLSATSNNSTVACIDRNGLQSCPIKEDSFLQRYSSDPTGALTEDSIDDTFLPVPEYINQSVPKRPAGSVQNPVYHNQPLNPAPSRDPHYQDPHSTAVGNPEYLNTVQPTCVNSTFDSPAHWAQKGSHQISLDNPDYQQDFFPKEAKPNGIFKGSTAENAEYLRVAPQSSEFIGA
Chain of EGFR L858R kinase domain (P00533 669-1210 L858R): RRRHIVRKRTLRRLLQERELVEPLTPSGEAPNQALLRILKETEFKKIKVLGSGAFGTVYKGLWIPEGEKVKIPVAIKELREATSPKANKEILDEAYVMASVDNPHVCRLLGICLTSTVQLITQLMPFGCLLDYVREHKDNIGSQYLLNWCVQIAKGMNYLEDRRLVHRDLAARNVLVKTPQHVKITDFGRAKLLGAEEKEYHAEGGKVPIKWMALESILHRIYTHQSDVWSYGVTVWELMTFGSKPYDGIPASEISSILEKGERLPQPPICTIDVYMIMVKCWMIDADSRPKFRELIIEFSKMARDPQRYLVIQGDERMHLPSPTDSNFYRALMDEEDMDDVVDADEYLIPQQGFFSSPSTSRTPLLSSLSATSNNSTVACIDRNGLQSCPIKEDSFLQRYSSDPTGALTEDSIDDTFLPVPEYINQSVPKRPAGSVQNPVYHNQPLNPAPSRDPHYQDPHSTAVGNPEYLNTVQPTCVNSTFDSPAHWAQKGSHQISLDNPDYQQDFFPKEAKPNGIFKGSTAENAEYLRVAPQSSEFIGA
Chain of EGFR T790M/L858R kinase domain (P00533 669-1210 T790M/L858R): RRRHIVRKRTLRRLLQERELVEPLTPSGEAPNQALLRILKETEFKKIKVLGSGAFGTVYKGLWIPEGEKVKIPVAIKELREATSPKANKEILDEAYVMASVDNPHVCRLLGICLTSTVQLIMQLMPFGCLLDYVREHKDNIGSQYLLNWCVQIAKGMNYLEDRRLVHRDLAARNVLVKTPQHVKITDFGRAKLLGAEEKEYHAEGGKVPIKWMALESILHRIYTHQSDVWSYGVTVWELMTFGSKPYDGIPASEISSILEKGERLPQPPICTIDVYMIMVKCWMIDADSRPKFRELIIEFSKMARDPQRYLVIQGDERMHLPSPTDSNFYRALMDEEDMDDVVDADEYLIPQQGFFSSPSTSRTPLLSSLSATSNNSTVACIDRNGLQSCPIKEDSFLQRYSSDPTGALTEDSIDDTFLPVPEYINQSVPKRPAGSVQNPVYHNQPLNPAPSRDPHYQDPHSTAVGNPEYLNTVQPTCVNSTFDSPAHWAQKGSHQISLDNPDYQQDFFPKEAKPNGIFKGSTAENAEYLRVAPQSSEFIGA
Chain of wild type B-Raf (P15056 whole entry): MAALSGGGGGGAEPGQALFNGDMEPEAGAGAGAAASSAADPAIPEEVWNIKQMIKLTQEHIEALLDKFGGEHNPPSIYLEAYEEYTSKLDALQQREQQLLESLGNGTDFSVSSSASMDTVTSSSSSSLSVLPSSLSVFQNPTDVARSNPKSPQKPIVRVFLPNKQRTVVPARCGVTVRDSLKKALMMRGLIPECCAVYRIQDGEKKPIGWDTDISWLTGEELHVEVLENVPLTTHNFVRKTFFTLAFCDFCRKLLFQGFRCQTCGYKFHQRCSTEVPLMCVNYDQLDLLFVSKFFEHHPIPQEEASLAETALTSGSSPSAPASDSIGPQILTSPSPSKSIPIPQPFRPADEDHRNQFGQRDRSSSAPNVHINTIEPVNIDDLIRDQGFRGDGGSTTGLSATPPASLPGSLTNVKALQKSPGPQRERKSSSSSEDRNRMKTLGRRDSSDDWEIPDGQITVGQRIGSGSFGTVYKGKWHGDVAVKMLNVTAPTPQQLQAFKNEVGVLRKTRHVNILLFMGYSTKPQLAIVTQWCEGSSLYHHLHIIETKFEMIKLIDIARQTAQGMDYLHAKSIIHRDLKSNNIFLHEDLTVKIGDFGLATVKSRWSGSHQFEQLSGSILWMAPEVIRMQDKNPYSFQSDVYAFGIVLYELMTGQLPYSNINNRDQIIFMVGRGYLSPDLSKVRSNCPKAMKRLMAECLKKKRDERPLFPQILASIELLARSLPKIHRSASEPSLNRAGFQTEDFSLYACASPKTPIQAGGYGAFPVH
Chain of B-Raf (V600E) (P15056 whole entry V600E): as the sequence (P15056 whole entry) above, with V600E counted along it

As for `CN(C)[C@H]1CCN(Cc2ccc(C(=O)N[C@@H]3[C@H]4Oc5ccc(Oc6ccnc7c6CCC(=O)N7)cc5[C@@H]34)cc2C(F)(F)F)C1` [Compound 1.9], the IC50 on wild type B-Raf worked out at 32 nM.

On to `CN(C)C1CCN(Cc2ccc(C(=O)N[C@@H]3[C@H]4Oc5ccc(Oc6ccnc7c6CCC(=O)N7)cc5[C@@H]34)cc2C(F)(F)F)CC1` [Compound 1.20], for which, at wild type B-Raf, the IC50 came to 16 nM.

Regarding `CN1CCN(CCOc2ccc(C(=O)N[C@@H]3[C@H]4Oc5ccc(Oc6ccnc7c6CCC(=O)N7)cc5[C@@H]34)cc2C(F)(F)F)CC1` [Compound 1.52], the IC50 at wild type B-Raf is 15 nM.

On to `CC1CN(Cc2ccc(C(=O)N[C@@H]3[C@H]4Oc5ccc(Oc6ccnc7c6CCC(=O)N7)cc5[C@@H]34)cc2C(F)(F)F)CC(C)N1` (stereo partly drawn) [Compound 1.65, 4-((3,5-dimethylpiperazin-1-yl)methyl)-N-((1S,1aS,6bS)-5-((7-oxo-5,6,7,8-tetrahydro-1,8-naphthyridin-4-yl)oxy)-1a,6b-dihydro-1H-cyclopropa[b]benzofuran-1-yl)-3-(trifluoromethyl)benzamide], for which the IC50 on EGFR L858R kinase domain was 1.1 nM; at WT EGFR kinase domain, 1.9 nM; in test [1] it was 11 nM; at B-Raf (V600E) it was 8.1 nM.

In the case of `CN(C)Cc1cc(C(=O)N[C@@H]2[C@H]3Oc4ccc(Oc5ccnc6c5CCC(=O)N6)cc4[C@@H]23)cc(C(F)(F)F)c1` [Compound 1.66], the IC50 on EGFR L858R kinase domain worked out at 13 nM; against WT EGFR kinase domain, 9.3 nM; in test [1], 81 nM; on B-Raf (V600E), 3.6 nM.

With `CCCCCC(=O)N[C@@H]1[C@H]2Oc3ccc(Oc4ccnc5c4CCC(=O)N5)cc3[C@@H]12` [Compound 1.67], the concentration for half-maximal inhibition (IC50) came to 182 nM against EGFR L858R kinase domain, 385 nM at WT EGFR kinase domain, 1410 nM in test [1] and 0.6 nM on B-Raf (V600E).

Take `CCCCCCC(=O)N[C@@H]1[C@H]2Oc3ccc(Oc4ccnc5c4CCC(=O)N5)cc3[C@@H]12` [Compound 1.68]: the IC50 against EGFR L858R kinase domain was determined as 71 nM; at WT EGFR kinase domain it was 98 nM; in test [1] it was 95 nM; on B-Raf (V600E), 0.77 nM.

For `CCCCCCCC(=O)N[C@@H]1[C@H]2Oc3ccc(Oc4ccnc5c4CCC(=O)N5)cc3[C@@H]12` [Compound 1.69], the 50% inhibitory concentration (IC50) against EGFR L858R kinase domain came out at 116 nM; against WT EGFR kinase domain, 118 nM; in test [1], 782 nM; on B-Raf (V600E), 2 nM.

As to `CCCCCCCCCC(=O)N[C@@H]1[C@H]2Oc3ccc(Oc4ccnc5c4CCC(=O)N5)cc3[C@@H]12` [Compound 1.70], the IC50 on EGFR L858R kinase domain was determined as 230 nM; at WT EGFR kinase domain it was 628 nM; in test [1] it was 1300 nM; at B-Raf (V600E), 24 nM.

In the case of `CN(C)C1CCN(c2ccc(C(=O)N[C@@H]3[C@H]4Oc5ccc(Oc6ccnc7c6CCC(=O)N7)cc5[C@@H]34)cc2C(F)(F)F)CC1` [Compound 1.71], the IC50 turned out to be 2.1 nM against EGFR L858R kinase domain, 2.7 nM against WT EGFR kinase domain, 21 nM in test [1] and 10 nM at B-Raf (V600E).

Regarding `COc1cc(C(=O)N[C@@H]2[C@H]3Oc4ccc(Oc5ccnc6c5CCC(=O)N6)cc4[C@@H]23)ccc1CN1CCN(C)CC1` [Compound 1.72], the IC50 stood at 1 nM against EGFR L858R kinase domain, 3 nM at WT EGFR kinase domain, 32 nM in test [1] and 7.7 nM at B-Raf (V600E).

`CCN1CCN(Cc2ccc(C(=O)N[C@@H]3[C@H]4Oc5ccc(Oc6ccnc7c6CCC(=O)N7)cc5[C@@H]34)cc2OC)CC1` [Compound 1.73]: the IC50 at EGFR L858R kinase domain was 0.91 nM; at WT EGFR kinase domain, 1.8 nM; in test [1], 34 nM; on B-Raf (V600E), 6.9 nM.

As to `CCN1CCC(Cc2ccc(C(=O)N[C@@H]3[C@H]4Oc5ccc(Oc6ccnc7c6CCC(=O)N7)cc5[C@@H]34)cc2C(F)(F)F)CC1` [Compound 1.74, 4-((1-ethylpiperidin-4-yl)methyl)-N-((1S,1aS,6bS)-5-((7-oxo-5,6,7,8-tetrahydro-1,8-naphthyridin-4-yl)oxy)-1a,6b-dihydro-1H-cyclopropa[b]benzofuran-1-yl)-3-(trifluoromethyl)benzamide], the IC50 at EGFR L858R kinase domain was found to be 0.17 nM; on WT EGFR kinase domain, 0.74 nM; in test [1] it was 0.2 nM; on B-Raf (V600E) it was 10 nM.

Regarding `CCN1CCC(=Cc2ccc(C(=O)N[C@@H]3[C@H]4Oc5ccc(Oc6ccnc7c6CCC(=O)N7)cc5[C@@H]34)cc2C(F)(F)F)CC1` [Compound 1.75, 4-((1-ethylpiperidin-4-ylidene)methyl)-N-((1S,1aS,6bS)-5-((7-oxo-5,6,7,8-tetrahydro-1,8-naphthyridin-4-yl)oxy)-1a,6b-dihydro-1H-cyclopropa[b]benzofuran-1-yl)-3-(trifluoromethyl)benzamide], the IC50 at EGFR L858R kinase domain worked out at 0.26 nM; against WT EGFR kinase domain, 1.3 nM; in test [1] it was 0.18 nM; at B-Raf (V600E), 21 nM.

For `O=C1CCc2c(Oc3ccc4c(c3)[C@H]3[C@H](NC(=O)c5ccc(CO)c(C(F)(F)F)c5)[C@H]3O4)ccnc2N1` [Compound 1.76, 4-(hydroxymethyl)-N-((1S,1aS,6bS)-5-((7-oxo-5,6,7,8-tetrahydro-1,8-naphthyridin-4-yl)oxy)-1a,6b-dihydro-1H-cyclopropa[b]benzofuran-1-yl)-3-(trifluoromethyl)benzamide], the IC50 turned out to be 18 nM against EGFR L858R kinase domain, 4.2 nM on WT EGFR kinase domain, 31 nM in test [1] and 3.7 nM at B-Raf (V600E).

On to `CCN1CCN(Cc2ccc(C(=O)N[C@@H]3[C@H]4Oc5ccc(Oc6ccnc7c6CCC(=O)N7)cc5[C@@H]34)cc2OC(F)(F)F)CC1` [Compound 1.78, 4-((4-ethylpiperazin-1-yl)methyl)-N-((1S,1aS,6bS)-5-((7-oxo-5,6,7,8-tetrahydro-1,8-naphthyridin-4-yl)oxy)-1a,6b-dihydro-1H-cyclopropa[b]benzofuran-1-yl)-3-(trifluoromethoxy)benzamide], for which the IC50 against EGFR L858R kinase domain turned out to be 0.79 nM; at WT EGFR kinase domain, 1.2 nM; in test [1], 8 nM; at B-Raf (V600E) it was 10 nM.

On to `CNC(=O)c1cc(Oc2ccc3c(c2)[C@H]2[C@H](NC(=O)c4ccc(CN5CCN(C)CC5)c(C(F)(F)F)c4)[C@H]2O3)ccn1` [Compound 2.4], for which the IC50 at EGFR L858R kinase domain stood at 4.1 nM; at WT EGFR kinase domain it was 6.8 nM; in test [1] it was 7.3 nM; at B-Raf (V600E), 49 nM.

In the case of `CCN1CCN(Cc2ccc(C(=O)N[C@@H]3[C@H]4Oc5ccc(Oc6ccnc(N)c6)cc5[C@@H]34)cc2C(F)(F)F)CC1` [Compound 2.5, N-((1S,1aS,6bS)-5-((2-aminopyridin-4-yl)oxy)-1a,6b-dihydro-1H-cyclopropa[b]benzofuran-1-yl)-4-((4-ethylpiperazin-1-yl)methyl)-3-(trifluoromethyl)benzamide], the IC50 against EGFR L858R kinase domain came to 0.47 nM; against WT EGFR kinase domain it was 4.1 nM; in test [1], 0.82 nM; at B-Raf (V600E) it was 58 nM.

Consider `CCN1CCN(Cc2ccc(C(=O)N[C@@H]3[C@H]4Oc5ccc(Oc6ccnc7c6CNC(=O)N7)cc5[C@@H]34)cc2C(F)(F)F)CC1` [Compound 2.6, 4-((4-ethylpiperazin-1-yl)methyl)-N-((1S,1aS,6bS)-5-((2-oxo-1,2,3,4-tetrahydropyrido[2,3-d]pyrimidin-5-yl)oxy)-1a,6b-dihydro-1H-cyclopropa[b]benzofuran-1-yl)-3-(trifluoromethyl)benzamide], for which the IC50 against EGFR L858R kinase domain turned out to be 0.085 nM; on WT EGFR kinase domain it was 0.43 nM; in test [1] it was 0.076 nM; at B-Raf (V600E), 17 nM.

In the case of `CN1CCN(Cc2ccc(C(=O)N[C@@H]3[C@H]4Oc5ccc(Oc6ccnc7c6CNC(=O)N7)cc5[C@@H]34)cc2C(F)(F)F)CC1` [Compound 2.7], the IC50 was 0.15 nM at EGFR L858R kinase domain, 0.67 nM at WT EGFR kinase domain, 0.084 nM in test [1] and 16 nM on B-Raf (V600E).
